Test results published in paper PMC12114510, “Antimicrobial, Antioxidant, and α-Glucosidase-Inhibitory Activities of Prenylated p-Hydroxybenzoic Acid Derivatives from Oberonia ensiformis” (Molecules, 2025).
Where a name gives a salt, the structure may show the parent alone.

Tests used:
[1] = test system: α-glucosidase; assay: α-Glucosidase inhibition assay (PNPG method); format: biochemical; conditions: for IC50, inhibition of α-glucosidase: mean ± SD, PNPG method, 5 and 6 tested as epimeric mixtures
Description: The inhibitory activity of the obtained compounds on α-glucosidase was evaluated using the method mentioned in previous studies with minor modifications. […] Subsequently, 50 μL of 5.0 mM p-Nitrophenyl α-D-glucopyranoside (pNPG, dissolved in 0.1 M PB, pH 6.8) was added to the mixture. After incubation at 37 °C for 30 min, the reaction was stopped by adding 80 μL of 0.2 M sodium carbonate solution (dissolved in ultrapure water) to the reaction system. The absorbance value was measured at 405 nm using a microplate reader. […] Ac: Absorbance of the reaction system containing 20 μL PBS, 50 μL α-glucosidase, and 50 μL pNPG.

[2] = DPPH radical scavenging (antioxidant) assay; conditions: for IC50, clearance rate of DPPH: mean ± SD, 5 and 6 tested as epimeric mixtures
Description: The activity screening of 18 compounds isolated from O. ensiformis was carried out using 96-well plates and an enzyme labeler with DPPH methanol solution as substrate (0.15 mmol/L) and sodium ascorbate as positive control. The gradient mass concentration of the samples to be tested was 200, 100, 50, 25, 12.5 μg/mL and then divided into a sample group (100 μL DPPH solution + 100 μL sample, A), a sample control group (100 μL methanol + 100 μL sample, A0), and a negative control (100 μL DPPH solution + 100 μL methanol, A1). The samples to be tested were fully reacted under light-avoiding conditions, and the OD values were determined at 517 nm after 30 min [23]. The experiments were performed three times in parallel, and the DPPH radical scavenging rate was calculated. The scavenging rate of DPPH radical was calculated according to the following equation [24].E = [1 − (A − Aa)/Ab] × 100% A:100 μL of test compounds or L-Ascorbic Acid Sodium Salt and 100 μL of DPPH. Aa: 100 μL of test compounds or L-Ascorbic Acid Sodium Salt and 100 μL of MeOH. Ab: 100 μL of MeOH and 100 μL of DPPH.

CC(C)=CCc1cc(C(=O)O[C@@H]2CC(C(=O)O)=C[C@@H](O)[C@H]2O)cc2c1OC(C)(C)C=C2 [Compound 13, oberoniamyosurusin L]
inhibitory activity against α-glucosidase (in words) [1]: moderate | IC50, inhibition of α-glucosidase [1]: 86.53 ± 1.08 µg/mL

O=C1O[C@H]([C@@H](O)CO)C(O)=C1O [L-ascorbate, L-Ascorbic Acid Sodium Salt, reference compound]
IC50, clearance rate of DPPH [2]: 2.37 ± 0.11 µg/mL

CC(C)=CCc1cc(C(=O)O)cc2c1OC(C(C)(C)O)C2 (centres unmarked) [Compound 15, oberoniamyosurusins I]
inhibitory activity against α-glucosidase (in words) [1]: strong | IC50, inhibition of α-glucosidase [1]: 38.80 ± 4.43 µg/mL

C=C(C)C(O)Cc1cc(C(=O)O)cc(CCC(C)(C)O)c1O (centres unmarked) [Compound 11, oberoniamyosurusin E]
inhibitory activity against α-glucosidase (in words) [1]: no significant activity

C=C(C)C(O)Cc1cc(C(=O)O[C@@H]2CC(C(=O)O)=C[C@@H](O)[C@H]2O)cc(CC=C(C)C)c1O (some centres unmarked) [Compound 6, oberoniaensiformisin F]
DPPH radical scavenging activity [2]: > 50% | IC50, clearance rate of DPPH [2]: 173.76 ± 23.92 µg/mL | inhibitory activity against α-glucosidase (in words) [1]: moderate | IC50, inhibition of α-glucosidase [1]: 58.07 ± 6.22 µg/mL

CC(C)(O)CCc1cc(C(=O)O)cc2c1OC(C)(C)C=C2 [Compound 16, 1iparacids C]
inhibitory activity against α-glucosidase (in words) [1]: no significant activity

CC(C)=CCc1cc(C(=O)O)cc(CC=C(C)C)c1O [Compound 12, nervogenic acid]
DPPH radical scavenging activity [2]: > 50% | IC50, clearance rate of DPPH [2]: 185.36 ± 1.96 µg/mL | inhibitory activity against α-glucosidase (in words) [1]: strong | IC50, inhibition of α-glucosidase [1]: 34.03 ± 0.16 µg/mL

C=C(C)C(O)Cc1cc(C(=O)OC(C)C(C)(O)C(=O)O)cc(CC=C(C)C)c1O (centres unmarked) [Compound 5, Oberoniaensiformisin E]
inhibitory activity against α-glucosidase (in words) [1]: weak | IC50, inhibition of α-glucosidase [1]: 106.10 ± 2.12 µg/mL

C=C(C)C(O)Cc1cc(C(=O)O)cc2c1OC(C)(C)C=C2 (centres unmarked) [Compound 10, liparacid A]
inhibitory activity against α-glucosidase (in words) [1]: no significant activity

C=C(C)C(O)Cc1cc(C(=O)O)cc(CC(O)C(=C)C)c1O (centres unmarked) [Compound 18, liparacid B]
inhibitory activity against α-glucosidase (in words) [1]: no significant activity

CC(C)(O)CCc1cc(C(=O)O)cc(CCC(C)(C)O)c1O [Compound 17, oberoniamyosurusin F]
inhibitory activity against α-glucosidase (in words) [1]: no significant activity
